# Source: ChEMBL document CHEMBL5625267, “Glycosidase-activated H2S donorsto enhance chemotherapy efficacy” (Bioorg Med Chem Lett, 2024)
# Activity calls are given as the source filed them. The calls are words filed in the database; no cut-off is given here.
# Tests used:
# HepG2 [1] = experiment: Antiproliferative activity against human HepG2 cells assessed as cell viability at 50 uM incubated for 24 hrs by MTT assay relative to control; type: functional; conditions: read-out: Activity
# [2] = Antiproliferative activity against mouse 3T3 cells assessed as cell viability at 80 uM incubated for 24 hrs by MTT assay relative to control; type: toxicity, cell-based; conditions: NIH3T3 cells, read-out: Activity
# HepG2 [3] = experiment: Antiproliferative activity against human HepG2 cells assessed as cell viability at 80 uM incubated for 24 hrs by MTT assay relative to control; type: functional; conditions: read-out: Activity
# HeLa [4] = experiment: Antiproliferative activity against human HeLa cells assessed as cell viability at 80 uM incubated for 24 hrs by MTT assay relative to control; type: functional; conditions: read-out: Activity
# HeLa [5] = experiment: Antiproliferative activity against human HeLa cells assessed as cell viability at 50 uM incubated for 24 hrs by MTT assay relative to control; type: functional; conditions: read-out: Activity
# HepG2 [6] = experiment: Induction of apoptosis in human HepG2 cells at 80 uM incubated for 24 hrs by annexin V-FITC/propidium iodide staining based flow cytometry analysis relative to control; type: functional
# [7] = Antiproliferative activity against mouse 3T3 cells assessed as cell viability at 50 uM incubated for 24 hrs by MTT assay relative to control; type: toxicity, cell-based; conditions: NIH3T3 cells, read-out: Activity
# [8] = Release of H2S in PBS at 50 uM at pH 7.4; type: physicochemical; conditions: buffer, pH 7.4, 50 µM
# HeLa [9] = experiment: Induction of apoptosis in human HeLa cells at 80 uM incubated for 24 hrs by annexin V-FITC/propidium iodide staining based flow cytometry analysis relative to control; type: functional
# HepG2 [10] = experiment: Cytotoxicity against human HepG2 cells assessed as cell viability at 2 ug/ml incubated for 24 hrs by MTT assay relative to control; type: functional; conditions: read-out: Activity
# HeLa [11] = experiment: Induction of apoptosis in human HeLa cells assessed as late apoptotic cells at 80 uM incubated for 24 hrs by annexin V-FITC/propidium iodide staining based flow cytometry analysis (reference value: 3.95 %); type: functional
# HepG2 [12] = experiment: Cytotoxicity against human HepG2 cells assessed as cell viability at 80 uM incubated for 24 hrs by MTT assay relative to control; type: functional; conditions: read-out: Activity
# HepG2 [13] = experiment: Cytotoxicity against human HepG2 cells assessed as cell viability at 100 uM incubated for 24 hrs by MTT assay relative to control; type: functional; conditions: read-out: Activity
# HepG2 [14] = experiment: Induction of apoptosis in human HepG2 cells assessed as late apoptotic cells at 80 uM incubated for 24 hrs by annexin V-FITC/propidium iodide staining based flow cytometry analysis (reference value: 10.1 %); type: functional
# HepG2 [15] = experiment: Release of H2S in human HepG2 cells assessed as fold increase in fluorescence intensity at 50 uM incubated for 7 hrs in presence of fluorescent probe WPS-1 measured after 30 mins by confocal imaging analysis; type: ADME, cell-based; conditions: hepg2, 7.5 h
# HeLa [16] = experiment: Induction of apoptosis in human HeLa cells assessed as necrotic cells at 80 uM incubated for 24 hrs by annexin V-FITC/propidium iodide staining based flow cytometry analysis (reference value: 0.71 %); type: functional
# HeLa [17] = experiment: Induction of apoptosis in human HeLa cells assessed as early apoptotic cells at 80 uM incubated for 24 hrs by annexin V-FITC/propidium iodide staining based flow cytometry analysis (reference value: 3.59 %); type: functional
# HepG2 [18] = experiment: Induction of apoptosis in human HepG2 cells assessed as necrotic cells at 80 uM incubated for 24 hrs by annexin V-FITC/propidium iodide staining based flow cytometry analysis (reference value: 1.63 %); type: functional
# HepG2 [19] = experiment: Induction of apoptosis in human HepG2 cells assessed as early apoptotic cells at 80 uM incubated for 24 hrs by annexin V-FITC/propidium iodide staining based flow cytometry analysis (reference value: 1.03 %); type: functional
# HepG2 [20] = experiment: Cytotoxicity against human HepG2 cells assessed as cell viability at 100 uM incubated for 24 hrs in presence of doxorubicin by MTT assay relative to control; type: functional; conditions: read-out: Activity
# HepG2 [21] = experiment: Cytotoxicity against human HepG2 cells assessed as cell viability at 80 uM incubated for 24 hrs in presence of doxorubicin by MTT assay relative to control; type: functional; conditions: read-out: Activity
# HepG2 [22] = experiment: Induction of apoptosis in human HepG2 cells assessed as viable cells at 80 uM incubated for 24 hrs by annexin V-FITC/propidium iodide staining based flow cytometry analysis (reference value: 87.1 %); type: functional; conditions: read-out: Activity
# HeLa [23] = experiment: Induction of apoptosis in human HeLa cells assessed as viable cells at 80 uM incubated for 24 hrs by annexin V-FITC/propidium iodide staining based flow cytometry analysis (reference value: 91.7 %); type: functional; conditions: read-out: Activity
SMILES,viability at 50 µM (HepG2 [1]) [%],"viability at 24 h, 80 µM [2] [%]",viability at 80 µM (HepG2 [3]) [%],viability at 80 µM (HeLa [4]) [%],viability at 50 µM (HeLa [5]) [%],Activity (HepG2 [6]),"viability at 24 h, 50 µM [7] [%]",Activity [8] [%],Activity (HeLa [9]),also measured
OC[C@H]1O[C@@H](Oc2ccc(COC(=S)Nc3ccc(C(F)(F)F)cc3)cc2Br)[C@H](O)[C@@H](O)[C@H]1O,82.2,89.2,86.8,88.2,97.5,20.9%,86.8,36,,
OC[C@H]1O[C@@H](Oc2ccc(COC(=S)Nc3ccc(C(F)(F)F)cc3)cc2Br)[C@H](O)[C@@H](O)[C@@H]1O,87.3,92.7,61.8,92.1,95.3,inactive,93.5,36,inactive,
COc1cccc2c1C(=O)c1c(O)c3c(c(O)c1C2=O)C[C@@](O)(C(=O)CO)C[C@@H]3O[C@H]1C[C@H](N)[C@H](O)[C@H](C)O1 [DOXORUBICIN],,,,,,,,,,viability at 2 µg/mL (HepG2 [10]): 100%
O=C(Nc1ccc(C(F)(F)F)cc1)OCc1ccc(O[C@H]2O[C@H](CO)[C@@H](O)[C@H](O)[C@@H]2O)c(Br)c1,,,51.6,,,,,,,
OC[C@H]1O[C@H](Oc2ccc(COC(=S)Nc3ccc(C(F)(F)F)cc3)cc2)[C@@H](O)[C@@H](O)[C@@H]1O,81.7,95.3,90.2,95,97.4,inactive,94.5,36,inactive,
OC[C@H]1O[C@@H](Oc2ccc(COC(=S)Nc3ccc(C(F)(F)F)cc3)cc2F)[C@H](O)[C@@H](O)[C@@H]1O,88.6,90.8,86,100,96,inactive,88.9,36,inactive,
OC[C@H]1O[C@H](Oc2ccc(COC(=S)Nc3ccc(C(F)(F)F)cc3)cc2Br)[C@@H](O)[C@@H](O)[C@@H]1O,53.2,62.3,37.6,70.8,102,51.8%,83.6,36,45.2%,Activity (HeLa [11]): 23.3%; viability at 80 µM (HepG2 [12]): 73%; viability at 100 µM (HepG2 [13]): 67%; Activity (HepG2 [14]): 37.4%; fold change (FC) (HepG2 [15]): 7; Activity (HeLa [16]): 4.98%; Activity (HeLa [17]): 21.1%; Activity (HepG2 [18]): 1.13%; Activity (HepG2 [19]): 10.8%; viability at 100 µM (HepG2 [20]): 46%; viability at 80 µM (HepG2 [21]): 64%; viability at 80 µM (HepG2 [22]): 50.7%; viability at 80 µM (HeLa [23]): 50.6%
Cc1ccc(NC(=S)OCc2ccc(O[C@@H]3O[C@H](CO)[C@@H](O)[C@H](O)[C@H]3O)cc2)cc1,91,95,85.3,90.8,86.9,inactive,102,36,inactive,
Cc1ccc(NC(=S)OCc2ccc(O[C@@H]3O[C@H](CO)[C@H](O)[C@H](O)[C@H]3O)cc2)cc1,95.8,103,96.9,96.3,97.1,inactive,110,36,inactive,
OC[C@H]1O[C@@H](Oc2ccc(COC(=S)Nc3ccc(C(F)(F)F)cc3)cc2)[C@H](O)[C@@H](O)[C@H]1O,78.1,86.2,68.9,82.1,92,inactive,89.8,36,inactive,
OC[C@H]1O[C@H](Oc2ccc(COC(=S)Nc3ccc(C(F)(F)F)cc3)cc2F)[C@@H](O)[C@@H](O)[C@@H]1O,45.7,83.9,49,72.6,78.7,24.4%,86.3,36,40.6%,Activity (HeLa [11]): 23.9%; Activity (HepG2 [14]): 18.3%; Activity (HeLa [16]): 8.15%; Activity (HeLa [17]): 8.14%; Activity (HepG2 [18]): 3.44%; Activity (HepG2 [19]): 1.03%; viability at 80 µM (HepG2 [22]): 76.3%; viability at 80 µM (HeLa [23]): 56.8%
OC[C@H]1O[C@@H](Oc2ccc(COC(=S)Nc3ccc(C(F)(F)F)cc3)cc2F)[C@H](O)[C@@H](O)[C@H]1O,88.9,87.9,86,96,94.6,inactive,97.3,36,inactive,
OC[C@H]1O[C@@H](Oc2ccc(COC(=S)Nc3ccc(C(F)(F)F)cc3)cc2)[C@H](O)[C@@H](O)[C@@H]1O,87.9,91.7,91.2,92,86.9,inactive,88.1,36,inactive,
